According to PMC3671111, “A Phase I, open-label, randomized, crossover study in three parallel groups to evaluate the effect of Rifampicin, Ketoconazole, and Omeprazole on the pharmacokinetics of THC/CBD oromucosal spray in healthy volunteers” (SpringerPlus, 2013):
Where “and” joins values, the source holds several entries; their conditions need not be identical. Identical values can stand only once. Marks after values point to notes of the source that are not given here.

What was measured:
[1] = Phase I drug-drug interaction PK, Group 3: THC/CBD spray alone or with omeprazole, plasma by GC-MS; conditions: for CL/F / Varea/F: n = 12, mean (SD); for Cmax and AUC % Co-efficient of Variation (CV%) range: inter-subject variability
Experimental: (§1) Subjects received rifampicin on Days 1-9. […] Subjects received ketoconazole on Days 1-4.
(§2) Blood samples were collected at specified times and stored on ice (except rifampicin PK samples which were stored in iced water) prior to processing and storage. Plasma samples were separated by centrifugation (approximately 2500 rpm × 15 minutes at 4°C). Samples were stored in 4 mL amber glass screw top glass vials with PTFE lined screw caps labelled with Guys Drug Research (Quintiles Limited) labels. The aliquots were stored in clearly labelled containers in a freezer set at or below -20°C, until shipped for assay. Samples were shipped on dry ice at the appropriate time-points.
(§3) The assay validation was undertaken by Advanced Bioanalytical Service Laboratories (London, UK), who developed the technique after reviewing the literature, which was based on the methodology adopted by three different groups (Foltz et al. [1983]; Goodall & Basteyns [1995]; Kemp et al. [1995]), and designed with reference to FDA guidelines for industry (FDA Guidance for Industry [2012]). The method utilised protein precipitation, solvent extraction and derivatisation for the sample preparation and then sample analysis by capillary gas chromatography and detection by a mass spectrometer (GC-MS). The validation procedure investigated the calibration model with the best regression fit over the concentration range 0.1 - 100 ng/mL for CBD, THC and 11-OH-THC, as well as precision and accuracy of the method, stability, carry-over, and specificity.
(§4) Human plasma from healthy volunteers was used to prepare the standards and quality control (QC) samples, with analytes extracted using hexane/ethyl acetate (7:1 ratio), derivatised with N,O-Bis(trimethylsilyl)trifluoroacetamide. Analytic grade THC (Sigma, UK), CBD (Sigma, UK) and 11-OH-THC (Radian International and Cerillant, UK) were obtained, and three sets of CBD, THC and 11-OH-THC were used to support the study. Deuterated THC-d3 (Sigma, UK) was used as the internal standard. The GC-MS equipment was a Hewlett Packard 6890 Gas Chromatograph attached to a Hewlett Packard 5973 Mass Selective Detector. Data handling was carried out using an MS Chemstation System and the peak area ratio of the analytes to the internal standard was calculated in Excel (2000). The concentrations were calculated from the ratio data using least squares ln(y) on ln(x) regression performed in Excel (2000), and were then checked manually. Regression analysis was undertaken to find the regression model that best described the calibration data (for details, see ([Miller & Miller 1992])).
(§5) A 0.5 mL aliquot of test sample, QC or blank plasma was placed into a test tube. The blank plasma was spiked with 50 μL of the appropriate standard solution to produce the calibration standards. 50 μL of the internal standard was added to each test tube. The samples were then diluted by the addition of 500 μL of 0.1% (w/v) ascorbic acid and the protein precipitated by the addition of 1.0 mL of acetonitrile. The proteins were removed by centrifugation and the supernatant concentrated to 1 mL using nitrogen at 50 °C. The samples were then basified by the addition of 300 μL of 5M sodium hydroxide and the analytes extracted by the addition of 2.0 mL of 7:1 hexane:ethyl acetate. After mixing for 16 minutes the tubes were centrifuged and the top layer transferred into clean 3 dram vials. The solvent was removed using nitrogen at 70 °C and the dried extract resuspended in 100 μL of BSTFA and transferred to microvials, capped and placed at 70 °C for 30 minutes to derivatise the analytes. The microvials were then cooled and loaded onto the autosampler tray for analysis where 1 μL was injected onto the GC-MS system.

[2] = Phase I drug-drug interaction PK, Group 1: THC/CBD spray alone or with rifampicin, plasma by GC-MS; design: k el / half-life: dose or concentration left out as unconfirmed; conditions: for CL/F / Varea/F: n = 12, mean (SD)
Experimental: as §1, §2, §3, §4, §5

[3] = in normal dosing; approximately; no reference given; cited from earlier work
[4] = Phase I drug-drug interaction PK, Group 2: THC/CBD spray alone or with ketoconazole, plasma by GC-MS; design: k el: dose or concentration left out as unconfirmed; conditions: for CL/F / Varea/F: mean (SD)
Experimental: as §1, §2, §3, §4, §5

CYP3A4 = test system: CYP3A4; design: method as in GW unpublished data; conditions: one range printed for CYP3A4 and CYP2C19; ref GW unpublished data; read-out: IC50, inhibitory effect on CYP3A4; cited from earlier work
[5] = Peak plasma concentration of CBD in normal dosing
Text: However, to investigate the potential interactions of THC and CBD with drugs which also interact with the CYP450s CYP3A4 and CYP2C19, various known inducers/inhibitors of these isoenzymes were employed and the pharmacokinetics (PKs) of their co-administration with THC/CBD spray evaluated.

CYP2C19 = test system: CYP2C19; design: method as in GW unpublished data; conditions: one range printed for CYP3A4 and CYP2C19; ref GW unpublished data; read-out: IC50, inhibitory effect on CYP2C19; cited from earlier work
[6] = Omeprazole and THC/CBD spray vs THC/CBD spray alone, no-interaction range 0.80 to 1.25
[7] = THC/CBD spray 4 sprays and omeprazole 40 mg at end of 6-day dosing period, plasma
[8] = THC/CBD spray alone, single dose 4 sprays (10.8/10 mg), omeprazole group, plasma
[9] = THC/CBD spray co-administered with omeprazole vs alone
[10] = male, human, plasma, oral, 40 mg
[11] = Rifampicin and THC/CBD spray vs THC/CBD spray alone, no-interaction range 0.80 to 1.25
[12] = THC/CBD spray 4 sprays and rifampicin 600 mg after repeated daily dosing, plasma
[13] = THC/CBD spray alone, single dose 4 sprays (10.8/10 mg), rifampicin group, plasma
[14] = THC/CBD spray co-administered with rifampicin vs alone
[15] = Ketoconazole and THC/CBD spray vs THC/CBD spray alone, no-interaction range 0.80 to 1.25
[16] = THC/CBD spray 4 sprays and ketoconazole 400 mg at end of 5-day dosing period, n = 11, plasma
[17] = THC/CBD spray alone, single dose 4 sprays (10.8/10 mg), ketoconazole group, n = 12, plasma
[18] = THC/CBD spray co-administered with ketoconazole vs alone

Structure (SMILES): C=C(C)[C@@H]1CCC(C)=C[C@H]1c1c(O)cc(CCCCC)cc1O [CBD, cannabidiol]
- CL/F [1, 7]: 4772 (4550) L/h
- Varea/F [1, 7]: 24757 (16311) L
- CL/F [1, 8]: 4741 (3845)^a L/h
- Varea/F [1, 8]: 26298 (14532)^a L
- % change in Tmax [1, 9]: +9%
- % change in t1/2 [1, 9]: +5%
- Substrate for the isoenzyme CYP2C19 (conclusion from omeprazole interaction) ([1]; at the clinically relevant dose of THC/CBD spray investigated): not substrates
- Tmax ([1]; male, human, plasma, oral): 1.15 h
- half-life ([1]; male, human, plasma, oral): 5.22 h
- AUC(0-inf) [1, 10]: 3.33 ng·h/mL
- AUC(0-t) [1, 10]: 2.25 ng·h/mL
- Cmax [1, 10]: 0.73 ng/mL
- Tmax [1, 10]: 1.25 h
- half-life [1, 10]: 5.46 h
- k el [1, 10]: 5.83e-05 s⁻¹
- CL/F [2, 12]: 5966 L/h and 5966 (3713)^b L/h
- Varea/F [2, 12]: 34790 (20036)^b L
- CL/F [2, 13]: 2817 L/h and 2817 (1913) L/h
- Varea/F [2, 13]: 28312 (19355) L
- % change in mean t1/2 [2, 14]: -62%
- % change in median Tmax [2, 14]: +50%
- Change in mean Cmax ([2]; THC/CBD spray with rifampicin vs THC/CBD spray alone): -52%
- Change in mean CL/F ([2]; after multiple dose rifampicin treatment vs THC/CBD spray alone): +112%
- AUC(0-inf) ([2]; male, human, plasma): 2.15 ng·h/mL
- AUC(0-t) ([2]; male, human, plasma): 1.31 ng·h/mL
- Cmax ([2]; male, human, plasma): 0.5 ng/mL
- Tmax ([2]; male, human, plasma): 1.5 h
- half-life ([2]; male, human, plasma): 4.13 h
- k el ([2]; male, human, plasma): 5.44e-05 s⁻¹
- Tmax ([2]; male, human, plasma, oral): 1 h
- half-life ([2]; male, human, plasma, oral): 10.9 h
- CL/F [4, 16]: 1731 L/h and 1731 (650)^c L/h
- Varea/F [4, 16]: 14349 (7076)^c L
- CL/F [4, 17]: 2998 L/h and 2998 (896)^b L/h
- Varea/F [4, 17]: 31994 (12794)^b L
- % change in mean Tmax [4, 18]: +27%
- % change in t1/2 [4, 18]: -16%
- Change in mean Cmax ([4]; THC/CBD spray with ketoconazole vs THC/CBD spray alone): +89%
- Change in mean CL/F ([4]; co-administered with ketoconazole vs THC/CBD spray alone): -42%
- AUC(0-inf) ([4]; male, human, plasma, oral): 6.5 ng·h/mL
- AUC(0-t) ([4]; male, human, plasma, oral): 4.83 ng·h/mL
- Cmax ([4]; male, human, plasma, oral): 1.25 ng/mL
- k el ([4]; male, human, plasma, oral): 3.97e-05 s⁻¹
- Substrate for the isoenzyme CYP3A4 (conclusion from ketoconazole interaction) ([4]; suggested by increased exposure with ketoconazole): substrates
- IC50 (CYP2C19): 6 to 9 µM
